# Test results: PMC10977697 (PLOS ONE, 2024)
# Where no end group is shown, it is not given here.
# Test system: EpCAM
# Assay: Spot phage ELISA, EpCAM
# Type: binding, human
# Conditions: spot phage ELISA signal-to-noise on EpCAM
row,Sequence,S/N
1,GPTQSIYGVCGGIGYVGGRYCSGTTCQIPEKYKSQCLPGAS (disulfide (positions not given here)) [EpCAM CBD 45],11.1
2,GPTQSLPGFCGGIGYVGGRYCSGTTCQLPEKLKSQCLPGAS (disulfide (positions not given here)) [EpCAM CBD 1],26.7
3,GPTQSVIGPCGGIGYVGGRYCSGTTCQMPTSYRSQCLPGAS (disulfide (positions not given here)) [EpCAM CBD 35],14.4

# Test system: PCSK9
# Assay: not given
# Type: binding, human
# Conditions: spot phage ELISA signal-to-noise on PCSK9
row,Sequence,S/N
1,GCGSHFAPWFGCKQDSDCLSWLCLYAADGLW (disulfide (positions not given here)) [PCSK9 EET I-II 5],18.1
2,GCGWWYRQWFCKQDSDCLAGCVCLETPECG (disulfide (positions not given here)) [PCSK9 EET I-II 16],15.7
3,GCGYWFIQWFCKQDSDCLAGCVCGPNGFCG (disulfide (positions not given here)) [PCSK9 EET I-II 1],21.8
4,GCGYWFKMWFCKQDSDCLAGCVCYPGASCG (disulfide (positions not given here)) [PCSK9 EET I-II 8],9.7
5,GCGYWFKMWFCKQDSDCLAGCVCYPGASCG (disulfide (positions not given here)) [PCSK9 EET I-II 12],15.5

# Test system: CD16A
# Assay: Spot phage ELISA, CD16A
# Type: binding, human
# Conditions: spot phage ELISA signal-to-noise on CD16A
row,Sequence,S/N
1,GCADTPWKGKCKQDSDCLAGCVCGPNGFCG (disulfide (positions not given here)) [CD16A EETI-II 20],15.6
2,GCADTPWQGRCKQDSDCLAGCVCGPNGFCG (disulfide (positions not given here)) [CD16A EETI-II 21],25.5
3,GCAKDPWGQPMSCKQDSDCLAGCVCGPNGFC (disulfide (positions not given here)) [CD16A EETI-II 27],20.7
4,GCAVDPWGKQMTCKQDSDCLAGCVCGPNGFC (disulfide (positions not given here)) [CD16A EETI-II 33],19.5
5,GCDAILWTCKQDSDCLAGCVCSEEDLCG (disulfide (positions not given here)) [CD16A EETI-II 7],18.7
6,GCDAKLQQCKQDSDCLAGCVCEEAVICG (disulfide (positions not given here)) [CD16A EETI-II 2],22.9
7,GCDDILRACKQDSDCLAGCVCEEETLCG (disulfide (positions not given here)) [CD16A EETI-II 6],19.9
8,GCDDILRACKQDSDCLAGCVCEEETLCG (disulfide (positions not given here)) [CD16A EETI-II 9],17.8
9,GCDDPWGGEMCKQDSDCLAGCVCGPNGFCG (disulfide (positions not given here)) [CD16A EETI-II 16],23.6
10,GCDDPWGMAMPCKQDSDCLAGCVCGPNGFCG (disulfide (positions not given here)) [CD16A EETI-II 17],23.4
11,GCDEILHKCKQDSDCLAGCVCDEQQLCG (disulfide (positions not given here)) [CD16A EETI-II 10],17.2
12,GCDEMLYRCKQDSDCLAGCVCQEQDVCG (disulfide (positions not given here)) [CD16A EETI-II 5],20.0
13,GCDMPSWDNVWPCKQDSDCLAGCVCGPNGFC (disulfide (positions not given here)) [CD16A EETI-II 28],19.8
14,GCDSLLQRCKQDSDCLAGCVCTEEHLCG (disulfide (positions not given here)) [CD16A EETI-II 11],16.8
15,GCDWLEVECKQDSDCLAGCVCLISPYCG (disulfide (positions not given here)) [CD16A EETI-II 39],16.3
16,GCDYKLWRCKQDSDCLAGCVCEESQVCG (disulfide (positions not given here)) [CD16A EETI-II 3],21.6
17,GCDYKLWRCKQDSDCLAGCVCEESQVCG (disulfide (positions not given here)) [CD16A EETI-II 8],18.2
18,GCEWMAIPCKQDSDCLAGCVCWESPYCG (disulfide (positions not given here)) [CD16A EETI-II 40],20.1
19,GCGQAAVPCKQDSDCLAGCVCDPWGWCD (disulfide (positions not given here)) [CD16A EETI-II 29],23.7
20,GCGSKNGMNMCKQDSDCLAGCVCDPWGQCD (disulfide (positions not given here)) [CD16A EETI-II 31],15.5
21,GCIATVDHCKQDSDCLAGCVCEPFHVCG (disulfide (positions not given here)) [CD16A EETI-II 4],20.2
22,GCIETIDHCKQDSDCLAGCVCQPMRRCG (disulfide (positions not given here)) [CD16A EETI-II 13],20.1
23,GCMDTPWKGACKQDSDCLAGCVCGPNGFCG (disulfide (positions not given here)) [CD16A EETI-II 19],18.2
24,GCPRILMRCKQDPDCLAGCVCDEEQLCG (disulfide (positions not given here)) [CD16A EETI-II 1],25.4
25,GCPRILMRCKQDSDCLAGYVCDPWGVCD (disulfide (positions not given here)) [CD16A EETI-II 30],23.2
26,GCPWWWVVSCKQDSDCLAGCVCYLQENCG (disulfide (positions not given here)) [CD16A EETI-II 14],17.8
27,GCPWWWVVSCKQDSDCLAGCVCYLQENCG (disulfide (positions not given here)) [CD16A EETI-II 43],16.5
28,GCQDPWGEAMQCKQDSDCLAGCVCGPNGFCG (disulfide (positions not given here)) [CD16A EETI-II 15],25.7

row,Sequence,S/N
1,GCQFMKTECKQDSDCLAGCVCYESPWCG (disulfide (positions not given here)) [CD16A EETI-II 22],19.0
2,GCQVDPWGHQMDCKQDSDCLAGCVCGPNGFC (disulfide (positions not given here)) [CD16A EETI-II 32],22.9
3,GCQWAQLSWDHCKQDSDCLAGCVCWQSPYCG (disulfide (positions not given here)) [CD16A EETI-II 35],16.7
4,GCQWDPWGVQMNCKQDSDCLAGCVCGPNGFC (disulfide (positions not given here)) [CD16A EETI-II 34],19.6
5,GCQWHEMTCKQDSDCLAGCVCWESPWCG (disulfide (positions not given here)) [CD16A EETI-II 36],15.9
6,GCQWIQQPCKQDSDCLAGCVCHESPWCG (disulfide (positions not given here)) [CD16A EETI-II 38],17.4
7,GCQWIQVNCKQDSDCLAGCVCWVSPYCG (disulfide (positions not given here)) [CD16A EETI-II 37],5.8
8,GCQWQVEECKQDSDCLAGCVCWHSPYCG (disulfide (positions not given here)) [CD16A EETI-II 41],18.8
9,GCQWVQMTCKQDSDCLAGCVCWHSPWCG (disulfide (positions not given here)) [CD16A EETI-II 42],17.3
10,GCQYIETECKQDSDCLAGCVCWVSPWCG (disulfide (positions not given here)) [CD16A EETI-II 44],20.5
11,GCRGIDWWPCKQDSDCLTGCVCGPNGFCG (disulfide (positions not given here)) [CD16A EETI-II 24],11.1
12,GCSGNAMNCKQDSDCLAGCVCDPWGKCD (disulfide (positions not given here)) [CD16A EETI-II 25],19.7
13,GCVETYVDCKQDSDCLAGCVCEPVQYCG (disulfide (positions not given here)) [CD16A EETI-II 12],18.5
14,GCWDPWGPMSCKQDSDCLAGCVCGPNGFCG (disulfide (positions not given here)) [CD16A EETI-II 18],12.9
15,GCWGFPFPMDCKQDSDCLAGCVCFLWDKCG (disulfide (positions not given here)) [CD16A EETI-II 23],19.5
16,GCWGPWGPEHCKQDSDCLAGCVCGPNGFCG (disulfide (positions not given here)) [CD16A EETI-II 26],18.3
17,GPTQSEGGQCGGIGYSGPTVCASGTTCQVLGPMWSFCLPGAS (disulfide (positions not given here)) [CD16A CBD 10],5.9
18,GPTQSEGGQCGGIGYSGPTVCASGTTCQVLGPSWSFCLPGAS (disulfide (positions not given here)) [CD16A CBD 11],4.9
19,GPTQSEGGSCGGIGYSGPTVCASGTTCQVLGPYISLCLPGAS (disulfide (positions not given here)) [CD16A CBD 2],18.5
20,GPTQSEGGSCGGIGYSGPTVCASGTTCQVLNPYMSACLPGAS (disulfide (positions not given here)) [CD16A CBD 7],14.8
21,GPTQSHGGSCGGIGYSGPTVCASGTTCQVLNPYLSLCLPGAS (disulfide (positions not given here)) [CD16A CBD 3],17.5
22,GPTQSHYGQCGGLGYFGQWFCSGTTCQMMSPYGSQCLPGAST (disulfide (positions not given here)) [CD16A CBD 9],8.3
23,GPTQSMGGSCGGIGYSGPTVCASGTTCQVLDPYISMCLPGAS (disulfide (positions not given here)) [CD16A CBD 5],16.5
24,GPTQSPEGSCGGIGYSGPTVCASGTTCQVLNPYLSLCLPGAS (disulfide (positions not given here)) [CD16A CBD 8],14.2
25,GPTQSPXGSCGGIGYSGPTVCASGTTCQVLNPYLSQCLPGAS (disulfide) [CD16A CBD 4],16.8
26,GPTQSVWGSCGGIGYSGPTVCASGTTCQVLNPYMSACLPGAS (disulfide (positions not given here)) [CD16A CBD 1],21.0
27,GPTQSWDGQCGGIGYSGPTVCASGTTCQVLSPYLSYCLPGAS (disulfide (positions not given here)) [CD16A CBD 6],15.7
